# Assay results from patent publication US20230235077A1, “MATERIALS AND METHODS OF TREATING CANCER” (THE GENERAL HOSPITAL CORPORATION, priority 2020, published 2023).
# Legend:
# D4M.3A melanoma cells = assay: D4M.3A melanoma in mice: interval versus continuous mepazine with anti-PD-1 (Example 1); assay type: in vivo; details: female C57BL/6 mice; mepazine 16 mg/kg i.p. daily on days 7-10 only versus continuously to day 19; with anti-PD-1 mAb 200 μg i.p. daily; FIG. 1
# Method: Female C57BL/6 mice were implanted subcutaneously with 10^6 D4M.3A melanoma cells. Starting 7 days later (arrow), animals were treated with daily i.p. injections of 200 μg of anti-PD-1 mAbs (clone 29F.1A12) or isotype control mAb (rat IgG2a). Some animals in addition received daily i.p. injections of 16 mg/kg bodyweight of the allosteric MALT-1 inhibitor mepazine, either for the first 4 days (days 7-10) only, or continuously until the end of the experiment on day 19. Tumor size was measured using a caliper every 2-3 days. n=4/group. *=p<0.05 versus Ctrl.
# D4M.3A syngeneic tumors [1] = assay: D4M.3A syngeneic tumor efficacy study: (S)-mepazine PO 5 days on/5 days off or QD with anti-PD1 (Example 7); assay type: in vivo; details: male C57BL/6 mice; (S)-mepazine PO 5 days on and 5 days off versus each day; with anti-PD1 200 μg at days 0, 2, 4; FIG. 4
# Method: Male C57BL/6 mice were implanted subcutaneously with D4M.3A syngeneic tumors. The mice were dosed with (S)-mepazine PO and with anti-PD1 mouse clone 29F.1A12 dosed 3 times 200 μg/dose at days 0, 2, and 4 of a treatment cycle. The mice were dosed 5 days on with (S)-mepazine and 5 days off (a dose holiday) (5+5) or each day with (S)-mepazine (QD) PO. Tumor volume was measured each day.
# D4M.3A syngeneic tumors [2] = assay: D4M.3A syngeneic tumor efficacy study: (S)-mepazine IP ×3, ×7 or QD with anti-PD1 (Example 6); assay type: in vivo, C57BL/6 mice
# Method: Male C57BL/6 mice were implanted subcutaneously with D4M.3A syngeneic tumors. The mice were dosed with (S)-mepazine IP and with anti-PD1 mouse clone 29F.1A12 dosed 3 times 200 μg/dose at days 0, 2, and 4 of a treatment cycle. A ×3 arm of mice were dosed at days 0, 1, and 3 of a 21 day treatment cycle with (S)-mepazine IP. A ×7 arm of mice were dosed at days 0-6 of a 21 day treatment cycle with (S)-mepazine IP. A QD arm of mice were dosed daily with (S)-mepazine IP. Tumor volume was measured each day. The results of the study are shown in FIGS. 2 and 3, for ×3 arm and ×7 arm, respectively.
SMILES,"Tumor size, interval versus continuous treatment (D4M.3A melanoma cells)","Tumor volume, 5+5 dosing versus QD dosing (D4M.3A syngeneic tumors [1])","Tumor control of ×3 and ×7 arms versus QD dosing arm (D4M.3A syngeneic tumors [2]; (S)-mepazine IP with anti-PD1, up to 7 days after (S)-mepazine was dosed)","Tumor volume, activity against the tumor compared to anti-PD1 alone, ×3 arm (D4M.3A syngeneic tumors [2]; male C57BL/6 mice, (S)-mepazine IP on days 0, 1 and 3 of 21 day cycle, with anti-PD1 200 μg at days 0, 2, 4, FIG. 2)","Tumor volume, activity against the tumor compared to anti-PD1 alone, ×7 arm (D4M.3A syngeneic tumors [2]; male C57BL/6 mice, (S)-mepazine IP on days 0-6 of 21 day cycle, with anti-PD1 200 μg at days 0, 2, 4, FIG. 3)","Duration of efficacy for tumor control after (S)-mepazine was dosed (D4M.3A syngeneic tumors [2]; ×3 and ×7 arms, (S)-mepazine IP with anti-PD1, male C57BL/6 mice)"
CN1CCCC(CN2c3ccccc3Sc3ccccc32)C1 (racemic) [mepazine],at least as effective as continuous treatment,–,–,–,–,–
CN1CCC[C@H](CN2c3ccccc3Sc3ccccc32)C1 [(S)-mepazine],–,equivalent to a QD dosing schedule,comparable to the QD dosing arm,improved activity against the tumor compared to anti-PD1 alone,improved activity against the tumor compared to anti-PD1 alone,up to 7 days
